Converted amounts (≈) assume the structure as drawn.
What was measured:
S. pneum AB 34 = assay: MIC, agar incorporation method; details: agar incorporation
MRSA 15187 = assay: MIC, agar incorporation method; details: agar incorporation
Ent. faecalis ATCC 29212 = assay: MIC, agar incorporation method; details: agar incorporation
S. aureus = assay: Summary of in vitro activity (MIC); details: S. aureus
G +ve bacteria = assay: Summary of in vitro activity (MIC); details: for MIC50 / MIC90: G +ve, Number 49; for Geometric Mean of in vitro activity (MIC): Gram + ve
MRSA 562 = assay: MIC, agar incorporation method; details: agar incorporation; Table 1
VRE 6A (Ent. faecium 6A) = assay: MIC, agar incorporation method; details: agar incorporation
MRSA 33 = assay: MIC, agar incorporation method; details: agar incorporation
Strep. pyog. ATCC 19615 = assay: MIC, agar incorporation method; details: agar incorporation
S. pneumoniae = assay: Summary of in vitro activity (MIC); details: S. pneumoniae; for MIC50 / MIC90: Number 19
E. faecalis = assay: Summary of in vitro activity (MIC); details: E. faecalis
S. aureus ATCC 25923 = assay: MIC, agar incorporation method; details: agar incorporation
Strep. pne. ATCC 6303 = assay: MIC, agar incorporation method; details: agar incorporation

SMILES | MIC S. pneum AB 34 (S. pneum AB 34) | MIC MRSA 15187 (MRSA 15187) | MIC E. faecalis 29212 (Ent. faecalis ATCC 29212) | MIC MRSA 562 (MRSA 562) | MIC VRE 6A (VRE 6A (Ent. faecium 6A)) | MIC MRSA 33 (MRSA 33) | MIC S. pyogenes 19615 (Strep. pyog. ATCC 19615) | MIC S. aureus 25923 (S. aureus ATCC 25923) | MIC S. pneum 6303 (Strep. pne. ATCC 6303) | also measured
CC(=O)NC[C@H]1CN(c2ccc(N3CC4C(CN(C)Cc5ccc([N+](=O)[O-])o5)C4C3)c(F)c2)C(=O)O1 (stereo partly drawn) [Compound No. 40, (S)-N-[[3-[3-Fluoro[4-[3-(1α,5α,6α)-6-[N-(5-nitro-2-furylmethyl)-N-methyl]amino-methyl]-3-azabicyclo-[3.1.0]hexane]phenyl]-2-oxo-5-oxazolidinyl]methyl]acetamide] | 2 µg/mL (≈ 3.99 µM) | 2 µg/mL (≈ 3.99 µM) | 2 µg/mL (≈ 3.99 µM) | 1 µg/mL (≈ 1.99 µM) | 4 µg/mL (≈ 7.98 µM) | 2 µg/mL (≈ 3.99 µM) | 0.125 µg/mL (≈ 0.249 µM) | 2 µg/mL (≈ 3.99 µM) | – | Geometric Mean of in vitro activity (MIC) (S. aureus): 1.83 µg/mL; MIC50 (S. aureus; Number 8): 2 µg/mL (≈ 3.99 µM); MIC90 (S. aureus; Number 8): 4 µg/mL (≈ 7.98 µM); MIC50 (G +ve bacteria): 1 µg/mL (≈ 1.99 µM); MIC90 (G +ve bacteria): 2 µg/mL (≈ 3.99 µM); Geometric Mean of in vitro activity (MIC) (G +ve bacteria): 0.93 µg/mL; Geometric Mean of in vitro activity (MIC) (S. pneumoniae): 0.71 µg/mL; MIC50 (S. pneumoniae): 1 µg/mL (≈ 1.99 µM); MIC90 (S. pneumoniae): 1 µg/mL (≈ 1.99 µM); Geometric Mean of in vitro activity (MIC) (E. faecalis): 2.38 µg/mL; MIC50 (E. faecalis; Number 7): 2 µg/mL (≈ 3.99 µM); MIC90 (E. faecalis; Number 7): 4 µg/mL (≈ 7.98 µM)
CC1(C)S[C@@H]2[C@H](NC(=O)Cc3ccccc3)C(=O)N2[C@H]1C(=O)O [Penicillin G, reference compound] | – | – | – | – | – | – | – | – | – | MIC50 (G +ve bacteria): 4 µg/mL (≈ 12 µM); MIC90 (G +ve bacteria): 32 µg/mL (≈ 95.7 µM); Geometric Mean of in vitro activity (MIC) (G +ve bacteria): 0.76 µg/mL; Geometric Mean of in vitro activity (MIC) (S. pneumoniae): 2.16 µg/mL; MIC50 (S. pneumoniae): 4 µg/mL (≈ 12 µM); MIC90 (S. pneumoniae): 32 µg/mL (≈ 95.7 µM)
CC(=O)NC[C@H]1CN(c2ccc(N3C[C@@H]4[C@H](C3)[C@H]4N(C)Cc3ccc([N+](=O)[O-])s3)c(F)c2)C(=O)O1 [Compound No. 34, (S)-N-[[3-[3-Fluoro[4-[3-(1α,5α,6α)-6-[N-(5-nitro-2-thienylmethyl)-N-methyl]-amino]-3-azabicyclo-[3.1.0]hexane]phenyl]-2-oxo-5-oxazolidinyl]methyl]acetamide] | 4 µg/mL (≈ 7.94 µM) | 1 µg/mL (≈ 1.99 µM) | 1 µg/mL (≈ 1.99 µM) | 1 µg/mL (≈ 1.99 µM) | 1 µg/mL (≈ 1.99 µM) | 1 µg/mL (≈ 1.99 µM) | 2 µg/mL (≈ 3.97 µM) | 1 µg/mL (≈ 1.99 µM) | 4 µg/mL (≈ 7.94 µM) | –
CC(=O)NC[C@H]1CN(c2ccc(N3C[C@@H]4[C@@H](CN(C)C(=O)Cc5cccs5)[C@@H]4C3)c(F)c2)C(=O)O1 [Compound No. 38, (S)-N-[[3-[3-Fluoro[4-[3-(1α,5α,6α)-6-[N-(2-thiopheneacetyl)-N-methyl]amino-methyl]-3-azabicyclo-[3.1.0]hexane]phenyl]-2-oxo-5-oxazolidinyl]methyl]acetamide] | 1 µg/mL (≈ 2 µM) | 4 µg/mL (≈ 7.99 µM) | 4 µg/mL (≈ 7.99 µM) | 4 µg/mL (≈ 7.99 µM) | 4 µg/mL (≈ 7.99 µM) | 4 µg/mL (≈ 7.99 µM) | 1 µg/mL (≈ 2 µM) | 4 µg/mL (≈ 7.99 µM) | 1 µg/mL (≈ 2 µM) | –
CC(=O)NC[C@H]1CN(c2ccc(N3CCN(Cc4ccc(C=O)o4)CC3)c(F)c2)C(=O)O1 [Compound No. 02, (S)-N-[[3-[3-Fluoro-4-[N-1[4-{2-furyl(5-formyl)methyl}]piperazinyl]phenyl]-2-oxo-5-oxazolidinyl]methyl]acetamide] | 8 µg/mL (≈ 18 µM) | 2 µg/mL (≈ 4.5 µM) | 8 µg/mL (≈ 18 µM) | 1 µg/mL (≈ 2.25 µM) | 8 µg/mL (≈ 18 µM) | 2 µg/mL (≈ 4.5 µM) | 8 µg/mL (≈ 18 µM) | 1 µg/mL (≈ 2.25 µM) | 4 µg/mL (≈ 9 µM) | –
CC(=O)NC[C@H]1CN(c2ccc(N3CCN(Cc4ccc(C=NN)o4)CC3)c(F)c2)C(=O)O1 [Compound No. 62, (S)-N-[[3-[3-Fluoro-4[N-1-[4-{2-furyl-(5-hydrazone)-methyl}]-piperazinyl]-phenyl]-2-oxo-5-oxazolidinyl]-methyl]acetamide] | 8 µg/mL (≈ 17.4 µM) | 2 µg/mL (≈ 4.36 µM) | 8 µg/mL (≈ 17.4 µM) | 1 µg/mL (≈ 2.18 µM) | 8 µg/mL (≈ 17.4 µM) | 2 µg/mL (≈ 4.36 µM) | 8 µg/mL (≈ 17.4 µM) | 2 µg/mL (≈ 4.36 µM) | 8 µg/mL (≈ 17.4 µM) | –
CC(=O)NC[C@H]1CN(c2ccc(N3CCN(Cc4cccs4)CC3)c(F)c2)C(=O)O1 [Compound No. 12, (S)-N-[[3-[3-Fluoro-4-[N-1[4-(2-thienylmethyl)]piperazinyl]phenyl]-2-oxo-5-oxazolidinyl]methyl]acetamide] | 8 µg/mL (≈ 18.5 µM) | 8 µg/mL (≈ 18.5 µM) | 8 µg/mL (≈ 18.5 µM) | 8 µg/mL (≈ 18.5 µM) | 8 µg/mL (≈ 18.5 µM) | 8 µg/mL (≈ 18.5 µM) | 4 µg/mL (≈ 9.25 µM) | 8 µg/mL (≈ 18.5 µM) | 8 µg/mL (≈ 18.5 µM) | –
CC(=O)NC[C@H]1CN(c2ccc(N3CC4C(CN(C)Cc5ccc([N+](=O)[O-])s5)C4C3)c(F)c2)C(=O)O1 (stereo partly drawn) [Compound No. 39, (S)-N-[[3-[3-Fluoro[4-[3-(1α,5α,6α)-6-[N-(5-nitro-2-thienylmethyl)-N-methyl]-amino-methyl]-3-azabicyclo-[3.1.0]hexane]phenyl]-2-oxo-5-oxazolidinyl]methyl]acetamide] | 0.5 µg/mL (≈ 0.966 µM) | 8 µg/mL (≈ 15.5 µM) | 2 µg/mL (≈ 3.86 µM) | 8 µg/mL (≈ 15.5 µM) | 8 µg/mL (≈ 15.5 µM) | 4 µg/mL (≈ 7.73 µM) | 0.5 µg/mL (≈ 0.966 µM) | 8 µg/mL (≈ 15.5 µM) | 0.5 µg/mL (≈ 0.966 µM) | –
CC(=O)NC[C@H]1CN(c2ccc(N3CCN(Cc4ccc(C5OCCCO5)o4)CC3)c(F)c2)C(=O)O1 [Compound No. 66] | 8 µg/mL (≈ 15.9 µM) | 2 µg/mL (≈ 3.98 µM) | 16 µg/mL (≈ 31.8 µM) | 2 µg/mL (≈ 3.98 µM) | 16 µg/mL (≈ 31.8 µM) | 2 µg/mL (≈ 3.98 µM) | 8 µg/mL (≈ 15.9 µM) | 2 µg/mL (≈ 3.98 µM) | 8 µg/mL (≈ 15.9 µM) | –
CC(=O)NC[C@H]1CN(c2ccc(N3CCN(Cc4cc(Br)cs4)CC3)c(F)c2)C(=O)O1 [Compound No. 14, (S)-N-[[3-[3-Fluoro-4-[N-1[4-{2-thienyl(4-bromo)methyl}]piperazinyl]phenyl]-2-oxo-5-oxazolidinyl]methyl]acetamide] | 4 µg/mL (≈ 7.82 µM) | 2 µg/mL (≈ 3.91 µM) | 2 µg/mL (≈ 3.91 µM) | 2 µg/mL (≈ 3.91 µM) | 2 µg/mL (≈ 3.91 µM) | 2 µg/mL (≈ 3.91 µM) | 2 µg/mL (≈ 3.91 µM) | 4 µg/mL (≈ 7.82 µM) | 4 µg/mL (≈ 7.82 µM) | –

— patent US20040254162A1, “Oxazolidinone derivatives as antimicrobials” (priority 2001, published 2004)
